Assay results taken from publication PMC6667604, “Mechanism of action of antimicrobial peptide P5 truncations against Pseudomonas aeruginosa and Staphylococcus aureus” (AMB Express, 2019).
≈ marks a conversion by molar mass, not a printed value. Like-named read-outs stand apart in the source and are kept apart here. Peptide text beside a SMILES is read from it.

Assays:
[1] = system: B. subtilis KCTC 2217; type: cell-based, Bacillus subtilis
Procedure: (§1) We detected the antimicrobial activity of peptides against Gram-negative bacteria (P. aeruginosa ATCC 27853 and A. baumannii KCTC 2508) and Gram-positive bacteria (S. aureus ATCC 25923 and B. subtilis KCTC 2217). The minimum inhibitory concentrations (MICs) of the parental and truncated peptides were determined using the microbroth dilution method, as previously described (Jorgensen [1993]). The bacteria were incubated overnight with shaking at 37 °C. The bacteria were diluted to 2 × 10^5 colony forming units (CFU)/mL in Mueller–Hinton broth (MHB) media. The peptides were serially diluted in 10 mM sodium phosphate buffer and then 50 µL of the bacteria and 50 µL of the peptide solutions were mixed and incubated for 18 h at 37 °C. The MICs were measured as the absorbance at 600 nm using a Versa Max microplate reader (Molecular Devices, Sunnyvale, CA, USA). The samples were analyzed in triplicate.

[2] = system: P. aeruginosa ATCC 27853; type: cell-based, Pseudomonas aeruginosa; details: ATCC 27853, 18 h
Procedure: as §1
(§2) The effects of various cations on the antimicrobial activity of P5 and the truncated peptides were determined against P. aeruginosa ATCC 27853 and S. aureus ATCC 25923. Bacteria were treated with the peptides in the presence of NaCl (50, 100, and 150 mM), MgCl2 (0.5, 1, and 2 mM), and FeCl3 (1, 4, and 8 µM). The MIC values were the same as those described above.

[3] = system: P. aeruginosa ATCC 27853; type: cell-based, Pseudomonas aeruginosa; details: ATCC 27853, 18 h; remark: listed apart in the source
Procedure: as §1

[4] = system: S. aureus ATCC 25923; type: cell-based, Staphylococcus aureus; details: ATCC 25923, 18 h
Procedure: as §1

[5] = system: A. baumannii KCTC 2508; type: cell-based, Acinetobacter baumannii
Procedure: as §1

[6] = system: red blood cells (RBCs) from mice; assay: Hemolytic activity; type: cell-based; details: mouse RBCs 8% in PBS, peptide 100 µM, 1 h at 37 °C, absorbance 414 nm, 0.1% Triton X-100 positive control
Procedure: To determine the hemolytic activities of the peptides against red blood cells (RBCs) from mice, RBCs were centrifuged at 2000×g for 5 min and washed with 1 mL of phosphate-buffered saline solution (PBS) three times. The supernatant was removed and the RBCs were diluted to 8% in PBS. After serial dilution, 60 µL of the RBCs and peptides were added to a 96-well plate and incubated at 37 °C for 1 h. The plate was centrifuged at 1500×g for 10 min, 100 µL of the supernatant was transferred to a new plate, and the absorbance was measured at 414 nm (Versa-Max enzyme-linked immunosorbent assay (ELISA) reader). Additionally, 0.1% Triton X-100 and PBS were used as positive and negative controls, respectively. The hemolytic activity percentage (hemolysis rate) was calculated using the following equation (Han et al. [2016]): Hemolysis percentage%=peptide solution-negative control/positive control-PBS×100.

[7] = system: S. aureus ATCC 25923; type: cell-based, Staphylococcus aureus; details: ATCC 25923, 18 h; remark: listed apart in the source
Procedure: as §1, §2

[8] = system: HaCaT cells; assay: Cytotoxicity, MTT assay; type: cell-based, human; details: 24 h, 1.56 µM
Procedure: Human skin epithelial cells (HaCaT cells) were cultured in Dulbecco’s modified Eagle’s medium (DMEM) with 10% fetal bovine serum (FBS) at 37 °C in 5% CO2. Cytotoxicity was determined using the MTT assay (Deng et al. [2015]). HaCaT cells were plated at 2 × 10^4 cells/well in 96-well plates. After overnight incubation, the peptides were added at various concentrations for 24 h, and then 5 mg/mL of MTT was added to each well. After 1 h, the supernatant was removed and 100 μL of DMSO was added to each well to dissolve the formazan crystals. Cytotoxicity was measured at an absorbance of 570 nm using a microplate reader (VersaMax). The cell viability percentage (cell viability rate) was calculated using the following equation (Kim et al. [2018]): Cell viability percentage%=peptide treated sample[…]×100.

| Structure (SMILES) | MIC ([1]; KCTC 2217, 18 h) [µM] | MIC [2] [µM] | MIC [3] [µM] | MIC [4] [µM] | MIC ([5]; KCTC 2508, 18 h) [µM] | hemolysis [6] | MIC [7] [µM] | cytotoxicity [8] | MIC ([1]; B. subtilis KCTC 2217, MHB, 2 × 10^5 CFU/mL, 18 h at 37 °C, absorbance 600 nm, triplicate) [µM] | MIC ([5]; A. baumannii KCTC 2508, MHB, 2 × 10^5 CFU/mL, 18 h at 37 °C, absorbance 600 nm, triplicate) [µM] |
| --- | --- | --- | --- | --- | --- | --- | --- | --- | --- | --- |
| CC(C)C[C@H](NC(=O)[C@H](CC(C)C)NC(=O)[C@@H]1CCCN1C(=O)[C@H](CCCCN)NC(=O)[C@H](CCCCN)NC(=O)[C@H](CC(C)C)NC(=O)[C@H](CC(C)C)NC(=O)[C@H](CCCCN)NC(=O)[C@H](CCCCN)NC(=O)[C@H](Cc1c[nH]c2ccccc12)NC(=O)[C@@H](N)CCCCN)C(=O)N[C@@H](CCCCN)C(N)=O [P5-CT3] (H-KWKKLLKKPLLK-NH2) | 6.25 (≈ 9.51 µg/mL) | > 25 | > 25 | 3.13 (≈ 4.76 µg/mL) | > 25 | – | – | – | – | – |
| CC(C)C[C@H](NC(=O)[C@H](CCCCN)NC(=O)[C@H](CCCCN)NC(=O)[C@H](CC(C)C)NC(=O)[C@H](CC(C)C)NC(=O)[C@H](CCCCN)NC(=O)[C@H](CCCCN)NC(=O)[C@H](CC(C)C)NC(=O)[C@H](CC(C)C)NC(=O)[C@@H]1CCCN1C(=O)[C@H](CCCCN)NC(=O)[C@H](CCCCN)NC(=O)[C@H](CC(C)C)NC(=O)[C@H](CC(C)C)NC(=O)[C@H](CCCCN)NC(=O)[C@H](CCCCN)NC(=O)[C@H](Cc1c[nH]c2ccccc12)NC(=O)[C@@H](N)CCCCN)C(N)=O [P5] (H-KWKKLLKKPLLKKLLKKL-NH2) | 1.56 (≈ 3.5 µg/mL) | – | 3.13 (≈ 7.03 µg/mL) | 1.56 (≈ 3.5 µg/mL) | 1.56 (≈ 3.5 µg/mL) | approximately 14% | 1.56 (≈ 3.5 µg/mL) | – | – | – |
| CC[C@H](C)[C@H](NC(=O)CN)C(=O)NCC(=O)N[C@@H](C)C(=O)N[C@H](C(=O)N[C@@H](CC(C)C)C(=O)N[C@@H](CCCCN)C(=O)N[C@H](C(=O)N[C@@H](CC(C)C)C(=O)N[C@H](C(=O)N[C@H](C(=O)NCC(=O)N[C@@H](CC(C)C)C(=O)N1CCC[C@H]1C(=O)N[C@@H](C)C(=O)N[C@@H](CC(C)C)C(=O)N[C@H](C(=O)N[C@@H](CO)C(=O)N[C@@H](Cc1c[nH]c2ccccc12)C(=O)N[C@H](C(=O)N[C@@H](CCCCN)C(=O)N[C@@H](CCCNC(=N)N)C(=O)N[C@@H](CCCCN)C(=O)N[C@@H](CCCNC(=N)N)C(=O)N[C@@H](CCC(N)=O)C(=O)N[C@@H](CCC(N)=O)C(N)=O)[C@@H](C)CC)[C@@H](C)CC)[C@@H](C)O)[C@@H](C)O)C(C)C)C(C)C [Melittin, reference compound] | – | – | – | – | – | – | – | highly toxic | 0.78 (≈ 2.22 µg/mL) | 1.56 (≈ 4.44 µg/mL) |
| CC(C)C[C@H](NC(=O)[C@H](CC(C)C)NC(=O)[C@H](CCCCN)NC(=O)[C@H](CCCCN)NC(=O)[C@H](CC(C)C)NC(=O)[C@H](CC(C)C)NC(=O)[C@@H]1CCCN1C(=O)[C@H](CCCCN)NC(=O)[C@H](CCCCN)NC(=O)[C@H](CC(C)C)NC(=O)[C@H](CC(C)C)NC(=O)[C@H](CCCCN)NC(=O)[C@H](CCCCN)NC(=O)[C@H](Cc1c[nH]c2ccccc12)NC(=O)[C@@H](N)CCCCN)C(=O)N[C@@H](CCCCN)C(N)=O [P5-CT1] (H-KWKKLLKKPLLKKLLK-NH2) | 1.56 (≈ 3.13 µg/mL) | – | 1.56 (≈ 3.13 µg/mL) | 1.56 (≈ 3.13 µg/mL) | 3.13 (≈ 6.27 µg/mL) | – | 0.78 (≈ 1.56 µg/mL) | – | – | – |
| CC(C)C[C@H](NC(=O)[C@H](CCCCN)NC(=O)[C@H](CCCCN)NC(=O)[C@H](CC(C)C)NC(=O)[C@H](CC(C)C)NC(=O)[C@H](CCCCN)NC(=O)[C@H](CCCCN)NC(=O)[C@H](CC(C)C)NC(=O)[C@H](CC(C)C)NC(=O)[C@@H]1CCCN1C(=O)[C@H](CCCCN)NC(=O)[C@H](CCCCN)NC(=O)[C@H](CC(C)C)NC(=O)[C@H](CC(C)C)NC(=O)[C@H](CCCCN)NC(=O)[C@@H](N)CCCCN)C(N)=O [P5-NT1] (H-KKLLKKPLLKKLLKKL-NH2) | 1.56 (≈ 3.01 µg/mL) | – | 1.56 (≈ 3.01 µg/mL) | 1.56 (≈ 3.01 µg/mL) | 3.13 (≈ 6.05 µg/mL) | – | 0.78 (≈ 1.51 µg/mL) | – | – | – |
| CC(C)C[C@H](NC(=O)[C@H](CCCCN)NC(=O)[C@H](CCCCN)NC(=O)[C@H](CC(C)C)NC(=O)[C@H](CC(C)C)NC(=O)[C@H](CCCCN)NC(=O)[C@H](CCCCN)NC(=O)[C@H](CC(C)C)NC(=O)[C@H](CC(C)C)NC(=O)[C@@H]1CCCN1C(=O)[C@H](CCCCN)NC(=O)[C@@H](N)CCCCN)C(N)=O [P5-NT3] (H-KKPLLKKLLKKL-NH2) | 1.56 (≈ 2.26 µg/mL) | – | 6.25 (≈ 9.06 µg/mL) | 1.56 (≈ 2.26 µg/mL) | 25 (≈ 36.2 µg/mL) | – | 0.78 (≈ 1.13 µg/mL) | – | – | – |
| CC(C)C[C@H](NC(=O)[C@H](CCCCN)NC(=O)[C@H](CCCCN)NC(=O)[C@H](CC(C)C)NC(=O)[C@H](CC(C)C)NC(=O)[C@@H]1CCCN1C(=O)[C@H](CCCCN)NC(=O)[C@H](CCCCN)NC(=O)[C@H](CC(C)C)NC(=O)[C@H](CC(C)C)NC(=O)[C@H](CCCCN)NC(=O)[C@H](CCCCN)NC(=O)[C@H](Cc1c[nH]c2ccccc12)NC(=O)[C@@H](N)CCCCN)C(N)=O [P5-CT2] (H-KWKKLLKKPLLKKL-NH2) | 3.13 (≈ 5.52 µg/mL) | – | 6.25 (≈ 11 µg/mL) | 1.56 (≈ 2.75 µg/mL) | 12.5 (≈ 22 µg/mL) | – | – | – | – | – |
| CC(C)C[C@H](NC(=O)[C@H](CCCCN)NC(=O)[C@H](CCCCN)NC(=O)[C@H](CC(C)C)NC(=O)[C@H](CC(C)C)NC(=O)[C@H](CCCCN)NC(=O)[C@H](CCCCN)NC(=O)[C@H](CC(C)C)NC(=O)[C@H](CC(C)C)NC(=O)[C@@H]1CCCN1C(=O)[C@H](CCCCN)NC(=O)[C@H](CCCCN)NC(=O)[C@H](CC(C)C)NC(=O)[C@@H](N)CC(C)C)C(N)=O [P5-NT2] (H-LLKKPLLKKLLKKL-NH2) | 1.56 (≈ 2.61 µg/mL) | – | 3.13 (≈ 5.24 µg/mL) | 1.56 (≈ 2.61 µg/mL) | 12.5 (≈ 20.9 µg/mL) | – | – | – | – | – |
